Measurements as given in patent publication US20180289009A1 (Synexis LLC, priority 2015, published 2018).
Where “and” joins values, the source holds several entries; their conditions need not be identical. Equal values may be shown once. Read-outs that look alike come from different tables or passages of the source.

Experiments:
[1] = system: Aspergillus Niger (vegetative); conditions: vegetative form; DHP gas 0.3 ppm; 2.2 × 10^4 per inch^2
H1N1 virus = conditions: DHP gas 0.6 ppm, 1.12 × 10^6 per inch^2
[2] = system: mold spoilage on fresh strawberries; conditions: DHP gas 0.1-0.4 ppm; 5 days; 73-78° F.; humidity 40-65%
Protocol: Experiments are conducted in a 1584 cubic foot test room. The temperature of test room is maintained between 73° F. and 78° F., and the humidity of the ambient air is between 40% and 65%. […] After the 5-day incubation period, the strawberries are evaluated for the presence of mold spoilage.

Feline calicivirus = conditions: DHP gas 0.6 ppm; ~1 × 10^8 per inch^2
Enterococcus faecalis = conditions: DHP gas 0.5-1.0 ppm
MS2 bacteriophage = conditions: DHP gas 0.6 ppm; 1.25 × 10^3 per inch^2
Streptococcus pyogenes = conditions: DHP gas 0.6 ppm; 5 × 10^4 per inch^2
C. difficile (spores) = conditions: DHP gas 0.5-1.0 ppm, 3.78 × 10^6 per inch^2
[3] = system: Geobacillus stearothermophilus spores
[4] = Log2 spore strip, 72 hours exposure to DHP gas at about 0.3 ppm
[5] = Log 2 spore strip, 144 hours exposure to DHP gas at about 0.3 ppm
[6] = Log 2 spore strip, 216 hours exposure to DHP gas at about 0.3 ppm
[7] = Log2 spore strip, 288 hours exposure to DHP gas at about 0.3 ppm
[8] = Log3 spore strip, 40 hours exposure to DHP gas at about 0.3 ppm
[9] = Log3 spore strip, 47.75 hours exposure to DHP gas at about 0.3 ppm
[10] = Log3 spore strip, 60.2 hours exposure to DHP gas at about 0.3 ppm
[11] = Log3 spore strip, 67.5 hours exposure to DHP gas at about 0.3 ppm
[12] = Log3 spore strip, 100 hours exposure to DHP gas at about 0.3 ppm
[13] = Log 3 spore strip, 144 hours exposure to DHP gas at about 0.3 ppm
[14] = Log 3 spore strip, 216 hours exposure to DHP gas at about 0.3 ppm
[15] = Log4 spore strip, 121.4 hours exposure to DHP gas at about 0.3 ppm
[16] = Log4 spore strip, 192 hours exposure to DHP gas at about 0.3 ppm
[17] = Log 4 spore strip, 216 hours exposure to DHP gas at about 0.3 ppm
[18] = Log4 spore strip, 223.5 hours exposure to DHP gas at about 0.3 ppm
[19] = Log4 spore strip, 288 hours exposure to DHP gas at about 0.3 ppm

`OO` [DHP gas, hydrogen peroxide] was tested. Which “Time to 90% reduction” value [1] did it give?
The value was 7 h.

And the “Time to 90% reduction” value (H1N1 virus)?
The value was “less than 30 minutes”.

What about the “Time to 90% reduction” value (H1N1 virus; listed as DHP Gas) of the same compound?
The value was 22.9 min.

What about the “Mold spoilage after 5-day incubation” value [2] of the same compound?
The value was “no signs of mold spoilage”.

What about the “Time to 90% reduction” value (Feline calicivirus) of the same compound?
The value was under 2 h.

What about the “Time to 90% reduction” value (MRSA; soil load not stated) of the same compound?
Its value is “under 5 hours”.

And the “Time to 90% reduction” value (MRSA; with soil load, DHP gas 0.6 ppm, 0.5 × 10^5 per inch^2)?
Its value is 4.6 h.

What about the “Time to 90% reduction” value (MRSA; without soil load, DHP gas 0.6 ppm, 1 × 10^5 per inch^2) of the same compound?
Its value is 2.6 h.

And the “Time to 90% reduction” value (Enterococcus faecalis)?
Its value is under 2 h.

What about the “Time to 90% reduction” value (MS2 bacteriophage) of the same compound?
The value was under 4 h.

And the “Time to 90% reduction” value (Streptococcus pyogenes)?
The value was under 4 h.

What about the “Reduction at 24 hours” value (C. difficile (spores)) of the same compound?
The value was 70.4% at 24.

What about the “Biological Change” value [3, 4] of the same compound?
The value was “turbidity”.

What about the “Color Change within 24 hour incubation” value [3, 4] of the same compound?
Its value is “light yellow”.

What about the “Time of Change” value [3, 4] of the same compound?
Its value is 15 h.

And the “Color Change within 24 hour incubation” value [3, 5]?
Its value is “very dark orange”.

And the “Time of Change” value [3, 5]?
Its value is 22 h.

What about the “Color Change within 24 hour incubation” value ([3]; Log 2 spore strip, 166.5 hours exposure to DHP gas at about 0.3 ppm) of the same compound?
The value was “may have changed”.

What about the “Biological Change” value [3, 6] of the same compound?
The value was “no turbidity”.

And the “Color Change within 24 hour incubation” value [3, 6]?
Its value is “very dark orange”.

And the “Time of Change” value [3, 6]?
The value was 22 h.

And the “Biological Change” value [3, 7]?
Its value is “no turbidity”.

What about the “Color Change within 24 hour incubation” value [3, 7] of the same compound?
Its value is “very light orange”.

And the “Time of Change” value [3, 7]?
The value was 17 h.

What about the “Biological Change” value [3, 8] of the same compound?
The value was “Heavy turbidity”.

What about the “Color Change within 24 hour incubation” value [3, 8] of the same compound?
Its value is “+ Light orange”.

What about the “Color Change within 24 hour incubation” value ([3]; Log3 spore strip, 42 hours exposure to DHP gas at about 0.3 ppm) of the same compound?
Its value is “+”.

And the “Color Change within 24 hour incubation” value ([3]; Log3 spore strip, 45.5 hours exposure to DHP gas at about 0.3 ppm)?
Its value is “+”.

What about the “Biological Change” value [3, 9] of the same compound?
Its value is “Less turbidity”.

And the “Color Change within 24 hour incubation” value [3, 9]?
The value was “+ Dark orange”.

And the “Biological Change” value [3, 10]?
Its value is “Heavy turbidity”.

What about the “Color Change within 24 hour incubation” value [3, 10] of the same compound?
The value was “+”.

And the “Color Change within 24 hour incubation” value ([3]; Log3 spore strip, 64.2 hours exposure to DHP gas at about 0.3 ppm)?
The value was “+”.

What about the “Color Change within 24 hour incubation” value ([3]; Log3 spore strip, 64.5 hours exposure to DHP gas at about 0.3 ppm) of the same compound?
The value was “+”.

What about the “Biological Change” value [3, 11] of the same compound?
Its value is “Almost no turbidity”.

And the “Color Change within 24 hour incubation” value [3, 11]?
Its value is “+”.

And the “Color Change within 24 hour incubation” value ([3]; Log3 spore strip, 70 hours exposure to DHP gas at about 0.3 ppm)?
Its value is “+”.

What about the “Color Change within 24 hour incubation” value ([3]; Log3 spore strip, 85.1 hours exposure to DHP gas at about 0.3 ppm) of the same compound?
The value was “+”.

And the “Color Change within 24 hour incubation” value ([3]; Log3 spore strip, 89 hours exposure to DHP gas at about 0.3 ppm)?
Its value is “+”.

And the “Color Change within 24 hour incubation” value [3, 12]?
The value was “+”.

What about the “Time of Change” value [3, 12] of the same compound?
Its value is 16 h and 22 to 24 h.

What about the “Biological Change” value [3, 13] of the same compound?
Its value is “no turbidity”.

What about the “Color Change within 24 hour incubation” value [3, 13] of the same compound?
Its value is “very light orange”.

What about the “Time of Change” value [3, 13] of the same compound?
Its value is 16.5 h.

And the “Color Change within 24 hour incubation” value ([3]; Log 3 spore strip, 166.5 hours exposure to DHP gas at about 0.3 ppm)?
Its value is “−”.

And the “Biological Change” value [3, 14]?
Its value is “no turbidity”.

And the “Color Change within 24 hour incubation” value [3, 14]?
The value was “very dark orange”.

And the “Time of Change” value [3, 14]?
Its value is 22 h.

And the “Biological Change” value [3, 15]?
The value was “almost no turbidity”.

And the “Color Change within 24 hour incubation” value [3, 15]?
Its value is “−”.

And the “Time of Change” value [3, 15]?
The value was 8 to 15 h and 15 h.

And the “Time of Change” value ([3]; Log4 spore strip, 144 hours exposure to DHP gas at about 0.3 ppm)?
The value was 17 h and 16.5 h.

What about the “Color Change within 24 hour incubation” value ([3]; Log 4 spore strip, 166.5 hours exposure to DHP gas at about 0.3 ppm) of the same compound?
Its value is “−”.

What about the “Color Change within 24 hour incubation” value ([3]; Log4 spore strip, 168 hours exposure to DHP gas at about 0.3 ppm) of the same compound?
Its value is “−”.

And the “Color Change within 24 hour incubation” value [3, 16]?
Its value is “−”.

And the “Time of Change” value [3, 16]?
The value was 15 h.

What about the “Biological Change” value [3, 17] of the same compound?
The value was “no turbidity”.

What about the “Color Change within 24 hour incubation” value [3, 17] of the same compound?
Its value is “very dark orange”.

What about the “Time of Change” value [3, 17] of the same compound?
Its value is 22 h.

What about the “Biological Change” value [3, 18] of the same compound?
Its value is “no turbidity”.

And the “Time of Change” value [3, 18]?
The value was 14 h and 22 h.

And the “Biological Change” value [3, 19]?
Its value is “no turbidity”.

What about the “Color Change within 24 hour incubation” value [3, 19] of the same compound?
The value was “darker orange”.

And the “Time of Change” value [3, 19]?
The value was 17 h.
